Laboratory results reported in PubChem BioAssay (NCI).
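Tested at 5 concentrations; 48 h exposure; 96-well plates; endpoints linearly interpolated, else capped at highest concentration. GI50 marks 50% less growth. Definition used: TGI = concentration required for complete inhibition of growth.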

Key:
Experiment in all cases: NCI anticancer screen, dose series, 48 h
EKVX NSCLC = test system: EKVX NSCLC
SF-539 CNS = test system: SF-539 CNS
HT29 colon = test system: HT29 colon
OVCAR-4 ovarian = test system: OVCAR-4 ovarian
MALME-3M melanoma = test system: MALME-3M melanoma
RPMI-8226 leukemia = test system: RPMI-8226 leukemia
IGROV1 ovarian = test system: IGROV1 ovarian
HS 578T breast = test system: HS 578T breast
MDA-MB-231 breast = test system: MDA-MB-231 breast
NCI/ADR-RES ovarian = test system: NCI/ADR-RES ovarian

| SMILES | TGI (EKVX NSCLC) [µM] | TGI (SF-539 CNS) [µM] | TGI (HT29 colon) [µM] | TGI (OVCAR-4 ovarian) [µM] | TGI (MALME-3M melanoma) [µM] | TGI (RPMI-8226 leukemia) [µM] | TGI (IGROV1 ovarian) [µM] | GI50 (HS 578T breast) [µM] | TGI (HS 578T breast) [µM] | GI50 (EKVX NSCLC) [µM] | GI50 (MDA-MB-231 breast) [µM] | TGI (MDA-MB-231 breast) [µM] | GI50 (SF-539 CNS) [µM] | GI50 (RPMI-8226 leukemia) [µM] | GI50 (IGROV1 ovarian) [µM] | GI50 (NCI/ADR-RES ovarian) [µM] | TGI (NCI/ADR-RES ovarian) [µM] | GI50 (HT29 colon) [µM] | GI50 (OVCAR-4 ovarian) [µM] | GI50 (MALME-3M melanoma) [µM] |
| --- | --- | --- | --- | --- | --- | --- | --- | --- | --- | --- | --- | --- | --- | --- | --- | --- | --- | --- | --- | --- |
| COC(=O)C1(O)c2ccccc2N=C2C1CCN2C (configuration not stated) | > 100 | > 100 | > 100 | > 100 | > 100 | > 100 | > 100 |  |  |  |  |  |  |  |  |  |  |  |  |  |
| O=C(CSc1ncc(-c2ccccc2)n1-c1ccccc1)Nc1ccc(-c2nc3ccccc3s2)cc1 | > 100 | > 100 |  |  |  | > 100 | > 100 | 4.89 | 80.8 | 8.82 | 21.4 | > 100 | 6.25 | > 100 | 2.72 |  |  |  |  |  |
| C#Cc1ccc(-n2c(/C=C/c3ccc4ccccc4c3)nc3ncccc3c2=O)cc1 |  | > 100 | > 100 | > 100 | > 100 | > 100 | > 100 | 7.62 | > 100 |  | 3.74 | > 100 | 2.91 | 0.451 | 2.92 | 3.29 | > 100 | 3.26 | 1.95 | 4.97 |
| CC1(C)CC(N2CCN(C3CC(C)(C)NC(C)(C)C3)CC2)CC(C)(C)N1 | > 100 | > 100 | > 100 | > 100 |  | > 100 | > 100 |  |  |  |  |  |  |  |  |  |  |  |  |  |
| CCCCCCSc1nc(COC(=O)NC)c(COC(=O)NC)n1C | > 100 | > 100 | > 100 | > 100 |  | > 100 | > 100 |  | > 100 |  |  | > 100 |  |  |  |  | > 100 |  |  |  |
| COc1ccc(/C=C2/CN(CCC#N)C/C(=C\c3ccc(OC)cc3)C2=O)cc1 |  | 5.42 | 3.9 | > 100 | 8.58 | 9.02 | 8.26 | 2.98 | 64.4 |  | 2.71 | 15 | 2.12 | 0.401 | 2.77 | 3.73 | > 100 | 1.9 | 4.42 | 2.95 |
| COC(=O)C1=C(\O)C[C@@]2(C)CC[C@@H](C(=O)OC)C2C/C=C\1C(=O)OC (some centres not stated) | > 100 | 38.8 | > 100 | > 100 | > 100 | > 100 | > 100 |  |  |  |  |  |  |  |  |  |  |  |  |  |
| CCCCCCCCCCCC(=O)OC(COC(N)=O)COc1ccc(Cl)cc1 (configuration not stated) | 92.1 | 66.4 | 40.6 | 40.9 | 48.3 | 47 | 81.2 |  |  |  |  |  |  |  |  |  |  |  |  |  |
| Cc1ccc(NC(=O)C(=O)CC(=O)c2ccccc2)cc1C | > 100 | > 100 | > 100 | > 100 | > 100 | > 100 | > 100 |  |  |  |  |  |  |  |  |  |  |  |  |  |
| Cn1cc(C2=C(c3c(S(C)=O)n(C)c4ccccc34)C(=O)NC2=O)c2ccccc21 (configuration not stated) |  | > 20.1 | > 25 | > 25 | > 25 | > 25 | > 25 | 5.57 | 24.9 |  | 12.9 | > 25 | 6.35 | 12.7 | 10.8 | 9.19 | > 25 | 7.51 | 16.1 | > 25 |
| COC(=O)NC(=O)c1cn(C2CCCCC2)c(=O)[nH]c1=O |  | > 100 | > 100 | > 100 | > 100 | > 100 | > 100 |  |  |  |  |  |  |  |  |  |  |  |  |  |
| N#CC1C(=O)NC(=O)C1=O (configuration not stated) | > 100 | > 100 | > 100 | > 100 | > 100 | > 100 | > 100 |  |  |  |  |  |  |  |  |  |  |  |  |  |
| O=C(/C=C/c1ccc(O)cc1)c1cc(Cl)ccc1O | > 100 | 44.9 | > 100 | > 100 | > 100 |  | > 100 |  |  |  |  |  |  |  |  |  |  |  |  |  |
| O=C1c2ccccc2C(=O)c2c1ccc1c2N=C(c2ccc(Br)cc2)CC(c2cccc3ccccc23)N1 (configuration not stated) | > 100 | > 100 | > 100 | > 100 | > 100 | > 100 | > 100 |  |  |  |  |  |  |  |  |  |  |  |  |  |
| O=C(O)COc1ccc(C(=O)/C(SS/C(C(=O)c2ccc(OCC(=O)O)c(Cl)c2Cl)=C2\C=C(c3ccccc3Cl)SS2)=C2/C=C(c3ccccc3Cl)SS2)c(Cl)c1Cl | > 89.3 | 17.2 | > 31.6 | 57.1 | > 100 | 42.5 | 63.2 |  |  |  |  |  |  |  |  |  |  |  |  |  |
| O=C(O)c1cn(C2CC2)c2cc(N3CCN(Cc4ccc5ccccc5c4O)CC3)c(F)cc2c1=O | > 100 |  | > 100 |  |  |  | > 100 | 2.3 | 6.9 | > 100 | 3.41 | > 100 |  |  | 4.91 |  |  | 4.35 |  |  |
| COc1cc(/C=C/c2cc(O)c(C/C=C(\C)CC/C=C(\C)CO)c(O)c2)cc2c1O[C@]1(C)CC[C@@H](O)C(C)(C)[C@H]1C2 | 98.6 | 11.1 | > 100 | > 100 |  |  | > 100 |  |  |  | 31 | > 100 | 3.4 |  | > 100 |  | > 100 | 31.1 | 32.5 |  |
| C=C1C(=O)C2(C)OC2(C)C1C(=O)O (configuration not stated) | > 100 | > 100 | > 100 | > 100 |  | > 100 | > 100 |  | > 100 |  |  | > 100 |  |  |  |  | > 100 |  |  |  |
| O=C1N=C(Nc2nc(-c3csc(NC4=NC(=O)/C(=C\c5ccc(Cl)cc5)S4)n3)cs2)S/C1=C/c1ccc(Cl)cc1 | > 50 | 46.2 | > 50 |  |  |  | > 50 | > 50 | > 50 | 12.3 | 10.2 | 35 | 15.4 |  | 19.8 | 18.1 | > 50 | 23.6 |  |  |
| O=C1NC(=N[C@H](CO)c2ccccc2)S/C1=C\c1ccc2ncccc2c1 |  | 7.67 | > 25 | > 25 | 22.4 | 10.9 | > 17.1 | 3.49 | > 13.8 |  | 7.71 | > 25 | 2.66 | 3.73 | 4.44 | > 19.3 | > 25 | 6.1 | 2.67 | 6.21 |
| CCCCC(C(=O)CCC(=O)Nc1ccc(Cl)cc1)C(=O)C(C)C (configuration not stated) | > 100 | > 100 | > 100 | > 100 | > 100 | > 100 | > 100 |  |  |  |  |  |  |  |  |  |  |  |  |  |
